# Experimental data published in US20210008012A1, “NOVEL APPLICATIONS OF DISULFIRAM AND DERIVATIVES THEREOF” (GENEHEAL BIOTECHNOLOGY CO., LTD., priority 2017, published 2021).
# Test system: PAICS
# Assay: Animal experiments: inhibition of SAICAR accumulation
# Assay type: in vivo
# Conditions: "can reach"
# Source text: By inhibiting the activity of PAICS, the accumulation of toxic compound […] is reduced, which proves that the compound disulfiram can effectively treat rare disease ADSL deficiency.
structure (smiles),measurement,value
"CCN(CC)C(=S)SSC(=S)N(CC)CC [disulfiram, Disulfiram]",inhibition ratio against SAICAR accumulation,87.11%
